In US20170157000A1, “COSMETIC PRODUCT WITH LIPOSOMAL GROWTH FACTORS” (DERMOPARTNERS, S.L., priority 2014, published 2017):

B1: follistatin (protein, UniProt P19883 30-344, looked up)
Follistatin: GNCWLRQAKNGRCQVLYKTELSKEECCSTGRLSTSWTEEDVNDNTLFKWMIFNGGAPNCIPCKETCENVDCGPGKKCRMNKKNKPRCVCAPDCSNITWKGPVCGLDGKTYRNECALLKARCKEQPELEVQYQGRCKKTCRDVFCPGSSTCVVDQTNNAYCVTCNRICPEPASSEQYLCGNDGVTYSSACHLRKATCLLGRSIGLAYEGKCIKAKSCEDIQCTGGKKCLWDFKVGRGRCSLCDELCPDSKSDEPVCASDNATYASECAMKEAACSSGVLLEVKHSGSCNSISEDTEEEEEDEDQDYSFPISSILEW
notes: growth factor follistatin analyzed in free form

Columns and labels:
[1] = tested on: human keratinocytes (HaCaT); experiment: MTT cell proliferation assay in human keratinocytes; assay type: cell-based; settings: 72 hours
Text: (§1) This assay is based on metabolic reduction of bromide 3-(4,5-dimethylthiazol-2-yl)-2,5-diphenyltetrazolium (MTT) carried out by the mitochondrial succinate dehydrogenase enzyme in a blue colored compound (formazan), allowing the mitochondrial functionality of the treated cells to be determined. This method has been very widely used to measure cell survival and proliferation. The quantity of live cells is proportional to the quantity of formazan produced. This method was developed by Mosmann in 1983, modified in 1986 by Francois Denizot and Rita Lang. • 1. Using trypsin, separate the cells and re-suspend them in supplemented culture medium (10% of bovine fetal serum and antibiotic). • 2. Determine the number of cells required per well using a Neubauer camera (HaCaT: 5,000 cells/96 well, 30,000 cells/24 well; HSF: 4,000 cells/96 well, 30,000 cells/24 well. • 3. Incubate at 37° C. and 5% of CO2 for 24 hours to allow for the adherence thereof. • 4. Prepare the mixtures of free and liposomated factor at the indicated concentrations, remove the medium and add the mixtures. • 5. Incubate at 37° C. and 5% of CO2 for 72 hours. • 6. Add MTT (1.9 mg/ml) in PBS solution (25 μl total) over the medium • 7. Incubate for 3 hours at 37° C. to allow for the formation of formazan crystals. • 8. Then remove the supernatant and add 100 μl of DMSO. • 9. Incubate for 30 minutes at 37° C. to allow for the formazan crystals to dissolve • 10. The optical density reading (OD) is carried out in a spectrophotometer at a wavelength of 570 nm. • The viability percentage is obtained in the following manner: % viability—DO cells treated×100/DO control cells

human fibroblasts (HSF) [2] = experiment: MTT cell proliferation assay in human fibroblasts; assay type: cell-based; settings: 72 hours
Text: as §1

[3] = tested on: human keratinocytes (HaCaT); experiment: Wound healing assay (cell migration) in human keratinocytes; assay type: cell-based; settings: 1 ng/ml; for wound closed more quickly than in the control cells: at 24 hours of treatment; for wound closure: at 48 hours
Text: (§2) The objective of the wound healing assay is the study of cell migration. It is based on observing the behavior of a confluent cell monolayer on which a hole or wound has been previously made. The cells at the border of the hole move towards the opening until new cell-cell contacts are established, thus closing the wound.
(§3) The basic steps involve creating the wound or cell free area on the cell monolayer, the capture of images periodically during the experiment and the comparison of all the images to determine the velocity of cell migration.
• 1. Cultivate the cells until confluence (100% approx.) in plates of 6 wells (HaCaT: 500,000 cells/6 well; HSF: 500,000 cells/6 well) • 2. Incubate at 37° C. and 5% of CO2 for 24 hours. • 3. Scaling of the wounds (2 wounds per horizontal trajectory well using yellow sterile points (P200). They are dragged along the monolayer with an angle of inclination of 30 degrees (not perpendicular to the plate) and guided with a previously marked section. Mark three points for taking measurements. • 4. Leave to rest for 15 minutes before adding the treatment. • 5. Prepare the mixtures of free and liposomated factors at a concentration of 1 ng/ml, the medium is removed and add the mixtures. • 6. Incubate at 37° C. and 5% of CO2 for 72 hours. • 7. Take measurements at the times 0, 24, 48 and 72 hours.
The percentage of migration is obtained in the following manner:
(§4) % migration=(time measured 0−time measured X/time measured 0)*100

human fibroblasts (HSF) [4] = experiment: Wound healing assay (cell migration) in human fibroblasts; assay type: cell-based; settings: 1 ng/ml
Text: as §2, §3
• 1. Cultivate the cells until confluence (100% approx.) in plates of 6 wells (HaCaT: 500,000 cells/6 well; HSF: 500,000 cells/6 well) • 2. Incubate at 37° C. and 5% of CO2 for 24 hours. • 3. […]
as §4

[5] = tested on: transcripts of the gene of the elastin; experiment: Induction of elastin synthesis by quantitative PCR in keratinocytes; assay type: cell-based, human; settings: control = value 1, dose dependent, 72 hours
Text: (§5) PCR in real time or quantitative PCR is a variation of standard PCR used for quantifying DNA or messenger RNA (mRNA) of a sample. Using specific sequence primers, it is possible to determine the number of copies or the relative quantity of a determined DNA or RNA sequence.
(§6) When PCR in real time is combined with a retro-transcription or RT reaction (RTPCR), the mRNA quantity of a sample may be determined by means of a relative quantification. Said quantification is termed relative if the relative quantity or ratio of mRNA of a specific gene is compared with respect to the mRNA quantity of a constitutive gene (endogenous control, GAPDH in this case) among different samples. This is what is termed as normalization of the specific gene expression or normalizing with respect to the different total concentration of RNA of the samples since if the quantity of endogenous control varies it is due to changes in the total RNA quantity used in the synthesis of cDNA, not to changes in its expression. For the quantification, the quantity of amplicon produced is measured in each cycle of PCR. The quantification of the product is produced by means of the addition of fluorophores which join to the amplicon in a quantitative manner such that the greater the product, the greater the fluorescence that will be emitted. […]

[6] = tested on: transcripts of the gene of the elastin; experiment: Induction of elastin synthesis by quantitative PCR in fibroblasts; assay type: cell-based, human; settings: control = value 1, dose dependent, 72 hours
Text: as §5, §6

TNFa transcripts = experiment: Anti-inflammatory effect by quantitative PCR after LPS, TNFa transcripts; assay type: cell-based, human; settings: cells with prior inflammation induced with 200 ng/ml LPS for three hours, dose dependent
Text: as §5, §6

IL6 transcripts = experiment: Anti-inflammatory effect by quantitative PCR after LPS, IL6 transcripts; assay type: cell-based, human; settings: cells with prior inflammation induced with 200 ng/ml LPS for three hours, dose dependent
Text: as §5, §6

[7] = concentrations greater than 1 ng/ml
[8] = low concentrations 0.01 ng/ml-0.5 ng/ml, untreated cells = 100% proliferation

Molecule	cell proliferation above the untreated cells [1, 7]	cell proliferation above the untreated cells [1, 8] [%]	cell proliferation above the untreated cells (human fibroblasts (HSF) [2]; [7])	cell proliferation above the untreated cells (human fibroblasts (HSF) [2]; [8]) [%]	wound closed more quickly than in the control cells [3] [%]	wound closure [3]	repair velocity of the wound, more quickly with respect to the control (human fibroblasts (HSF) [4]) [%]	synthesis of elastin (elastin gene transcripts) with respect to the control cells [5]	synthesis of elastin (elastin gene transcripts) with respect to the control cells [6]	transcript levels of TNFa (TNFa transcripts)	transcript levels of IL6 (IL6 transcripts)	cell proliferation (untreated cells = 100%) (human fibroblasts (HSF) [2]; concentration not given)	cell proliferation (untreated cells = 100%) (human fibroblasts (HSF) [2]; [7])	repair velocity of the wound versus control cells (human fibroblasts (HSF) [4])	cell proliferation above the untreated cells (human fibroblasts (HSF) [2]; concentration of 0.5 ng/ml) [%]
Nicotiana benthamiana Sh-Polypeptide-45 [GM-CSF free factor]	around 20%	20	around 60%	100	13	completely closed	20	increase in the synthesis of elastin	increase in the synthesis of elastin	decrease	decrease				
Nicotiana benthamiana Sh-Polypeptide-7 [HGH free factor]	around 20%				40	completely closed		increase in the synthesis of elastin	increase in the synthesis of elastin	decrease	decrease	around 100%	around 100%	hardly any difference	
B1			maintains cell proliferation around the control												40
